53 compounds from patent US12509437B2, “Substituted thiophene carboxamides and derivatives thereof as microbicides” (Bayer Aktiengesellschaft, priority 2019, dated 2025) can be followed below.

One data set deals with Peronospora parasitica. Put plainly: In vivo preventive test on Peronospora parasitica (Crucifer downy mildew) on cabbage. Conditions: Hyaloperonospora parasitica, 120 h, sprayed 72 hours before inoculation, evaluated 5 days after inoculation, read-out: efficacy; for pest or weed control at 125 ppm: 125 ppm of active ingredient; for pest or weed control at 500 ppm: 500 ppm of active ingredient; for pest or weed control at 31 ppm: 31 ppm of active ingredient. How it is done:
(§1) The tested active ingredients were prepared by homogenization in a mixture of acetone/Dimethyl sulfoxide/Tween®, and then diluted with water to obtain the desired active material concentration.
(§2) The young plants of cabbage were treated by spraying the active ingredient prepared as described above. Control plants were treated only with an aqueous solution of acetone/Dimethyl sulfoxide/Tween®.
After 72 hours, the plants were contaminated by spraying the leaves with an aqueous suspension of Peronospora parasitica spores. The contaminated cabbage plants were incubated for 5 days at 20° C. and at 100% relative humidity.
The test was evaluated 5 days after the inoculation. 0% means an efficacy which corresponds to that of the control plants while an efficacy of 100% means that no disease was observed.

In data set [1] the test system is Xanthomonas campestris pv. campestris. Put plainly: In vivo preventive test on Xanthomonas campestris pv. campestris (black rot on cabbage). To be noted: Xanthomonas campestris, sprayed 72 hours before inoculation, evaluated 8 or 10 days after inoculation, read-out: efficacy; for pest or weed control at 500 ppm: 500 ppm of active ingredient. How it is done:
as §1, §2
After 72 hours, the plants were contaminated by spraying the leaves with an aqueous bacteria suspension of Xanthomonas campestris pv. campestris. The contaminated cabbage plants were incubated for 8 or 10 days at 27° C. at 95% relative humidity.
The test was evaluated 8 or 10 days after the inoculation. 0% means an efficacy which corresponds to that of the control plants while an efficacy of 100% means that no disease was observed.

Data set [2] is described as follows: LogP by HPLC on reversed phase columns (EEC directive 79/831 Annex V.A8). The data set is classed as physicochemical. Conditions: for chromatographic logP: reversed phase HPLC columns. The protocol: [table] If more than one Log P value is available within the same method, all the values are given and separated by “+”. Calibration was done with straight-chain alkan2-ones (with 3 to 16 carbon atoms) with known Log P values (measurement of Log P values using retention times with linear interpolation between successive alkanones). Lambda-max-values were determined using UV-spectra from 200 nm to 400 nm and the peak values of the chromatographic signals.

The subject of data set [3] is salicylate responsive promoter sequence of the PR1 (pathogenesis-related protein I) gene (AT2G14610). Description: Induction of defense gene expression in Arabidopsis thaliana (PR1 promoter-GFP reporter plants). The data set is classed as in vivo. Conditions: 72 h, 3rd day after spraying, mock treated leaves set as 1.00, read-out: relative fluorescence value. How it is done: Arabidopsis thaliana reporter plants containing the coding sequence of a green fluorescent protein (GFP) linked to the salicylate responsive promoter sequence of the PR1 (pathogenesis-related protein I) gene (AT2G14610) were grown for five days and then sprayed with compounds. On the 3rd day after spraying, plant fluorescence was assessed with a MacroFluo instrument from Leica Microsystems (Wetzlar, Germany). Fluorescences were quantified with the Meta-Morph Microscopy Automation & Image Analysis Software (Molecular Devices, Sunnyvale, Calif., United States). Background fluorescence in mock treated leaves was set as 1.00.

Another data set concerns Uromyces appendiculatus. Description: In vivo preventive test on Uromyces appendiculatus (bean rust). Conditions: 240 h, sprayed 72 hours before inoculation, evaluated 10 days after inoculation, read-out: efficacy; for pest or weed control at 500 ppm: 500 ppm of active ingredient. How it is done:
as §1
The young plants of bean were treated by spraying the active ingredient prepared as described above. Control plants were treated only with an aqueous solution of acetone/Dimethyl sulfoxide/Tween®.
After 72 hours, the plants were contaminated by spraying the leaves with an aqueous suspension of Uromyces appendiculatus spores. The contaminated bean plants were incubated for 24 hours at 20° C. and at 100% relative humidity and then for 9 days at 20° C. and at 70-80% relative humidity.
The test was evaluated 10 days after the inoculation. 0% means an efficacy which corresponds to that of the control plants while an efficacy of 100% means that no disease was observed.

Where [4] appears, read: method [a]: LC-UV, acidic range, 0.1% formic acid in water and acetonitrile as eluent.

Each structure is given as a SMILES string. Read-outs that look alike come from different tables or passages of the source.

As for `O=C(NC1(C(=O)O)CC1)c1cc(Cl)c(Cl)s1` [CMP3, reference compound], in the data set with Peronospora parasitica, the pest or weed control at 125 ppm worked out at 0%. Further, the pest or weed control at 500 ppm (in the data set with Peronospora parasitica; in data set [1]) was 0% in each case. In addition, in data set [1] (31 ppm of active ingredient), the pest or weed control at 31 ppm was less than 40%.
Regarding `CCCOC(=O)C1(NC(=O)c2cc(Br)c(Br)s2)CC1` [CMP7, reference compound], in the data set with Peronospora parasitica, the pest or weed control at 500 ppm turned out to be 0%.
For the compound `O=C(NC(C(=O)O)C1CC1)c1sc(Br)c(Br)c1Br` (stereo not drawn) [CMP8, reference compound], the pest or weed control at 500 ppm in data set [1] is less than 10%.
On to `O=C(NC(C(=O)O)C1CC1)c1cc(Br)c(Br)s1` (stereo not drawn) [CMP13, reference compound], for which the pest or weed control at 125 ppm in the data set on Peronospora parasitica came out at 0%.
Turning to `COC(=O)C(NC(=O)c1sc(Br)c(Br)c1Br)C1CC1` (stereo not drawn) [CMP14, reference compound], in the data set with Peronospora parasitica, the pest or weed control at 31 ppm was found to be 0% and the pest or weed control at 125 ppm was 0%.
Take `CCNC(=O)SC[C@H](NC(=O)c1sc(Cl)c(Cl)c1C)C(=O)OC` [I.120]: in data set [2] (method [a]), the LogP is 3.22^[a].
As to `CNC(=S)SC[C@H](NC(=O)c1sc(Cl)c(Cl)c1C)C(=O)OC` [I.121], the LogP in data set [2] (method [a]) was 3.33^[a].
On the same count and under the same terms, then `CCOC(=O)CC(NC(=O)c1sc(Cl)c(Cl)c1C)C(=O)OCC` (stereo not drawn) [I.123], with 3.76^[a]; and `CCOC(=O)CCC(NC(=O)c1sc(Cl)c(Cl)c1C)C(=O)OCC` (stereo not drawn) [I.124], with 3.84^[a]; and `COC(=O)[C@H](CC(=O)OC(C)(C)C)NC(=O)c1sc(Cl)c(Cl)c1C` [I.125], with 4.17^[a].
As to `CCOC(=O)C(CSC(C)=O)NC(=O)c1sc(Cl)c(Cl)c1C` (stereo not drawn) [I.126], the LogP in data set [2] (method [a]) was 3.51^[a].
The same measure, in the same setting: then `Cc1c(C(=S)NC2(C(=O)OC3CCC3)CC2)sc(Br)c1Br` [I.127], with 4.66^[a].
For `Cc1c(C(=O)NC2(C(N)=O)CC2)sc(Br)c1Br` [I.129], the LogP in data set [2] (method [a]) is 2.07^[a].
Consider `CNC(=O)C1(NC(=O)c2sc(Br)c(Br)c2C)CC1` [I.130], for which the LogP in data set [2] (method [a]) was 2.21^[a].
The compound `CCCOC(=O)C1(NC(=O)c2sc(Br)c(Br)c2C)CCC1` [I.133] showed a chromatographic logP in data set [2] (method [a]) of 4.23. In addition, in the data set on Peronospora parasitica, the pest or weed control at 31 ppm was 70 to 79%, the pest or weed control at 125 ppm lay in the range of 90 to 100% and the pest or weed control at 500 ppm was in the range of 90 to 100%. Besides, in data set [3], the fold induction at 75 ppm was more than 2 and the fold induction at 300 ppm was more than 2. In addition, in the data set on Uromyces appendiculatus (31 ppm of active ingredient), the pest or weed control at 31 ppm was 90 to 100%. The pest or weed control at 125 ppm with Uromyces appendiculatus (125 ppm of active ingredient) is 90 to 100%. Further, the pest or weed control at 500 ppm in the data set on Uromyces appendiculatus was 90 to 100%.
In the case of `CCCSC(=O)C1(NC(=O)c2sc(Br)c(Br)c2C)CC1` [I.134], the chromatographic logP in data set [2] (method [a]) was found to be 4.26. In addition, the pest or weed control at 500 ppm in the data set on Peronospora parasitica fell in the range of 80 to 89%. In addition, in data set [3], the fold induction at 75 ppm was more than 2 and the fold induction at 300 ppm was more than 2. For the same compound, the pest or weed control at 500 ppm in the data set with Uromyces appendiculatus was in the range of 90 to 100%.
On to `Cc1c(C(=O)NC2(C(=O)NC3CCC3)CC2)sc(Br)c1Br` [I.135], for which the LogP in data set [2] (method [a]) is 2.94^[a].
Take `COC(=O)C(CCC(N)=O)NC(=O)c1sc(Br)c(Br)c1C` (stereo not drawn) [I.138]: in data set [2] (method [a]), the LogP was 2.13^[a].
Still for that read-out and setting: then `CCOC(=O)C1(NC(=O)c2sc(Br)c(Br)c2C)CCOCC1` [I.139], with 3.17^[a]; and `Cc1c(C(=O)NC(C(=O)OCc2ccccc2)C2CC2)sc(Cl)c1Cl` (stereo not drawn) [I.140], with 4.53^[a]; and `Cc1c(C(=O)NC2(C(=O)OC(C)C)CCC2)sc(Cl)c1Cl` [I.141], with 4.05^[a].
On the same count and under the same terms, then `COC(=O)C1(NC(=O)c2sc(Cl)c(Cl)c2C)CC(C)(C)C1` [I.142], with 4.05^[a]; and `COC(=O)C1(NC(=O)c2sc(Cl)c(Cl)c2C)CC(F)(F)C1` [I.143], with 3.43^[a]; and `COC(=O)C1(NC(=O)c2sc(Cl)c(Cl)c2C)COC1` [I.144], with 2.52^[a].
For the compound `Cc1c(C(=O)NC2(C(=O)OC(C)(C)C)CC(F)(F)C2)sc(Cl)c1Cl` [I.145], in data set [2] (method [a]), the LogP was 4.48^[a].
The same measure, in the same setting: in the case of `CCOC(=O)C1(NC(=O)c2sc(Cl)c(Cl)c2C)CSC1` [I.146] it was 3.60^[a].
Turning to `Cc1c(C(=O)NC2CCOC2=O)sc(Cl)c1Cl` (stereo not drawn) [I.147], in data set [2] (setting [4]), the LogP was 2.40^[a].
Regarding `CCOC(=O)[C@H](CO)NC(=O)c1sc(Cl)c(Cl)c1C` [I.148], the LogP in data set [2] (method [a]) was 2.53^[a].
On the same count and under the same terms, then `COC(=O)C(C)NC(=S)c1sc(Br)c(Br)c1C` (stereo not drawn) [I.149], with 4.05^[a]; and `CCOC(=O)C(C)NC(=S)c1sc(Br)c(Br)c1C` (stereo not drawn) [I.150], with 4.38^[a].
As to `Cc1c(C(=O)NC2(C#N)CCC(C3CCCCC3)CC2)sc(Br)c1Br` (stereo not drawn) [I.151], in data set [2] (setting [4]), the LogP was 6.06^[a].
With `Cc1c(C(=O)NC(C)(C#N)C2CC2)sc(Br)c1Br` (stereo not drawn) [I.152], in data set [2] (method [a]), the LogP is 3.50^[a].
Still for that read-out and setting: then `Cc1c(C(=O)NC(C(=O)OC2CCC2)C2CC2)sc(Cl)c1Cl` (stereo not drawn) [I.153], with 4.44^[a]; and `Cc1c(C(=O)NC(C(=O)OC(C)C)C2CC2)sc(Cl)c1Cl` (stereo not drawn) [I.154], with 4.23^[a]; and `Cc1c(C(=O)NC2(C(=O)OCC3CC3)CCC2)sc(Cl)c1Cl` [I.155], with 4.19^[a].
With `Cc1c(C(=O)NC2(C(=O)OC(C)(C)C)CCC2)sc(Cl)c1Cl` [I.156], the LogP in data set [2] (method [a]) was 4.55^[a].
On the same count and under the same terms, in the case of `CCCCOC(=O)C1(NC(=O)c2sc(Cl)c(Cl)c2C)CCC1` [I.157] it was 4.59^[a]; in that of `Cc1c(C(=O)NC2(C(=O)OC3CCCCC3)CCC2)sc(Cl)c1Cl` [I.158], 5.08^[a]; in that of `Cc1c(C(=O)NC2(C(N)=S)CC2)sc(Cl)c1Cl` [I.159], 2.54^[a].
For the compound `CNC(=O)C1(NC(=O)c2sc(Cl)c(Cl)c2C)CC1` [I.160], the LogP in data set [2] (method [a]) was 2.12^[a].
Same read-out and setting: then `Cc1c(C(=O)NC(C(=O)OC(C)(C)C)C2CC2)sc(Cl)c1Cl` (stereo not drawn) [I.161], with 4.70^[a].
Turning to `Cc1c(C(=O)N[C@H]2CCCNC2=O)sc(Cl)c1Cl` [I.162], the LogP in data set [2] (setting [4]) is 2.12^[a].
On the same count and under the same terms, in the case of `Cc1c(C(=O)NC2CCCCNC2=O)sc(Cl)c1Cl` (stereo not drawn) [I.163] it was 2.67^[a].
With `COC(=O)C(C)(Cc1ccccc1)NC(=O)c1sc(Cl)c(Cl)c1C` (stereo not drawn) [I.166], the LogP in data set [2] (method [a]) was 4.60^[a].
On to `Cc1c(C(=O)N[C@H]2CCOC2=O)sc(Cl)c1Cl` [I.167], for which, in data set [2] (setting [4]), the LogP was 2.34^[a].
As for `CCOC(=O)CN(C(=O)c1sc(Cl)c(Cl)c1C)C1CC1` [I.168], the LogP in data set [2] (method [a]) was 3.75^[a].
Same read-out and setting: then `Cc1c(C(=O)NC2(C#N)CCSCC2)sc(Br)c1Br` [I.169], with 3.59^[a].
For `Cc1c(C(=O)NC2(C#N)CCC(c3ccccc3)CC2)sc(Br)c1Br` (stereo not drawn) [I.170], the LogP in data set [2] (setting [4]) is 4.78^[a].
`Cc1c(C(=S)NCC(=O)O)sc(Cl)c1Cl` [I.172]: in data set [2] (method [a]), the LogP was 2.71^[a].
For the compound `Cc1c(C(=S)NC(C)C(=O)O)sc(Br)c1Br` (stereo not drawn) [I.173], in data set [2] (method [a]), the LogP was 3.05^[a].
Still for that read-out and setting: in the case of `Cc1c(C(=O)NC2(C#N)CCCSC2)sc(Br)c1Br` (stereo not drawn) [I.177] it was 3.50^[a].
As to `Cc1c(C(=O)NCC(=O)O)sc(Br)c1Br` [N-[(4,5-dibromo-3-methyl-2-thienyl)carbonyl]glycine], in data set [2] (preparation examples, method not indicated, read-out: Log P), the chromatographic logP is 2.05.
Turning to `O=C(O)c1ccccc1O` [Salicylic acid, reference compound], the fold induction at 300 ppm in data set [3] amounted to 2.7.
